Among the data in US8637550B2, “Heteroaryl diamide compounds useful as MMP-13 inhibitors” (Boehringer Ingelheim International GmbH, priority 2008, dated 2014) are IC50 values, retold here.

This assay has as its target MMP-13 (Homo sapiens, UniProt P45452). The experiment in a line: EnzoLyte 520 Generic MMP Assay Kit, 5-FAM/QXL520 FRET peptide substrate. Type of assay: biochemical. The source says: The EnzoLyte™ 520 Generic MMP Assay Kit (AnaSpec Inc.) can detect the activity of several MMPs including MMP-1, 2, 3, 7, 8, 9, 13, and 14. This kit uses a 5-FAM/QXL™520 fluorescence resonance energy transfer (FRET) peptide as an MMP substrate.

With `CNC(=O)[C@@H](NC(=O)c1ccc(-c2cccc(CNC(=O)C3CNCCO3)c2)o1)C(C)C` (stereo partly drawn) [N-[3-(5-{[(1S)-2-methyl-1-(methylcarbamoyl)propyl]carbamoyl}-2-furyl)benzyl]morpholine-2-carboxamide], 370 nM corresponded to half-maximal inhibition (IC50).
For `CNC(=O)[C@@H](NC(=O)c1ccc(-c2cccc(CNC(=O)c3cccnc3)c2)o1)C(C)C` [N-[3-(5-{[(1S)-2-methyl-1-(methylcarbamoyl)propyl]carbamoyl}-2-furyl)benzyl]nicotinamide], inhibition was half-maximal at 355 nM (IC50).
Turning to `CNC(=O)[C@@H](NC(=O)c1ccc(-c2cccc(CNC(=O)C3CCCCN3)c2)o1)C(C)C` (stereo partly drawn) [N-[3-(5-{[(1S)-2-methyl-1-(methylcarbamoyl)propyl]carbamoyl}-2-furyl)benzyl]piperidine-2-carboxamide], the half-maximal inhibitory concentration (IC50) came out at 270 nM. This IC50 and that of the compound before are within 1.5-fold of each other.
`CNC(=O)[C@@H](NC(=O)c1ccc(-c2cccc(CNC(=O)C3CCCNC3)c2)o1)C(C)C` (stereo partly drawn) [N-[3-(5-{[(1S)-2-methyl-1-(methylcarbamoyl)propyl]carbamoyl}-2-furyl)benzyl]piperidine-3-carboxamide] came in with an IC50 of 430 nM.
Regarding `CNC(=O)[C@@H](NC(=O)c1ccc(-c2cccc(CNC(=O)c3cnccn3)c2)o1)C(C)C` [N-[3-(5-{[(1S)-2-methyl-1-(methylcarbamoyl)propyl]carbamoyl}-2-furyl)benzyl]pyrazine-2-carboxamide], half-maximal inhibition (IC50) required 32 nM.
`CNC(=O)[C@@H](NC(=O)c1ccc(-c2cccc(CNC(=O)c3cccnn3)c2)o1)C(C)C` [N-[3-(5-{[(1S)-2-methyl-1-(methylcarbamoyl)propyl]carbamoyl}-2-furyl)benzyl]pyridazine-3-carboxamide]: the midpoint of inhibition, the IC50, lay at 420 nM.
The figure for `CNC(=O)[C@@H](NC(=O)c1ccc(-c2cccc(CNC(=O)c3ccnnc3)c2)o1)C(C)C` [N-[3-(5-{[(1S)-2-methyl-1-(methylcarbamoyl)propyl]carbamoyl}-2-furyl)benzyl]pyridazine-4-carboxamide] is 180 nM; for `CNC(=O)[C@@H](NC(=O)c1ccc(-c2cccc(CNC(=O)C3CCCCO3)c2)o1)C(C)C` (stereo partly drawn) [N-[3-(5-{[(1S)-2-methyl-1-(methylcarbamoyl)propyl]carbamoyl}-2-furyl)benzyl]tetrahydro-2H-pyran-2-carboxamide] it is 101 nM; for `CNC(=O)[C@@H](NC(=O)c1ccc(-c2cccc(CNC(=O)C3CCOCC3)c2)o1)C(C)C` [N-[3-(5-{[(1S)-2-methyl-1-(methylcarbamoyl)propyl]carbamoyl}-2-furyl)benzyl]tetrahydro-2H-pyran-4-carboxamide] it is 337 nM.
The figure for `CNC(=O)[C@@H](NC(=O)c1ccc(-c2ccc(NC(=O)c3cc4ccccc4o3)cc2)o1)C1CCCCC1` [N-[4-(5-{[(1S)-1-cyclohexyl-2-(methylamino)-2-oxoethyl]carbamoyl}furan-2-yl)phenyl]-1-benzofuran-2-carboxamide] is 496 nM; for `CNC(=O)[C@@H](NC(=O)c1ccc(-c2ccc(NC(=O)c3cn(C)cn3)cc2)o1)C1CCCCC1` [N-[4-(5-{[(1S)-1-cyclohexyl-2-(methylamino)-2-oxoethyl]carbamoyl}furan-2-yl)phenyl]-1-methyl-1H-imidazole-4-carboxamide] it is 140 nM.
The figure for `CNC(=O)[C@@H](NC(=O)c1ccc(-c2ccc(NC(=O)c3ccn(C)n3)cc2)o1)C1CCCCC1` [N-[4-(5-{[(1S)-1-cyclohexyl-2-(methylamino)-2-oxoethyl]carbamoyl}furan-2-yl)phenyl]-1-methyl-1H-pyrazole-3-carboxamide] is 31 nM; for `CNC(=O)[C@@H](NC(=O)c1ccc(-c2ccc(NC(=O)c3cnn(C)c3)cc2)o1)C1CCCCC1` [N-[4-(5-{[(1S)-1-cyclohexyl-2-(methylamino)-2-oxoethyl]carbamoyl}furan-2-yl)phenyl]-1-methyl-1H-pyrazole-4-carboxamide] it is 180 nM; for `CNC(=O)[C@@H](NC(=O)c1ccc(-c2ccc(NC(=O)c3ccnn3C)cc2)o1)C1CCCCC1` [N-[4-(5-{[(1S)-1-cyclohexyl-2-(methylamino)-2-oxoethyl]carbamoyl}furan-2-yl)phenyl]-1-methyl-1H-pyrazole-5-carboxamide] it is 99 nM.
With `CNC(=O)[C@@H](NC(=O)c1ccc(-c2ccc(NC(=O)c3occc3C)cc2)o1)C1CCCCC1` [N-[4-(5-{[(1S)-1-cyclohexyl-2-(methylamino)-2-oxoethyl]carbamoyl}furan-2-yl)phenyl]-3-methylfuran-2-carboxamide], inhibition was half-maximal at 93 nM (IC50). This IC50 and that of the compound before are within 1.5-fold of each other.
With `CNC(=O)[C@@H](NC(=O)c1ccc(-c2ccc(NC(=O)c3cc(C)c(C)o3)cc2)o1)C1CCCCC1` [N-[4-(5-{[(1S)-1-cyclohexyl-2-(methylamino)-2-oxoethyl]carbamoyl}furan-2-yl)phenyl]-4,5-dimethylfuran-2-carboxamide], the midpoint of inhibition, the IC50, lay at 63 nM. The IC50 values of the last two compounds are within 1.5-fold of each other.
Turning to `CNC(=O)[C@@H](NC(=O)c1ccc(-c2ccc(NC(=O)c3cc(C)[nH]n3)cc2)o1)C1CCCCC1` [N-[4-(5-{[(1S)-1-cyclohexyl-2-(methylamino)-2-oxoethyl]carbamoyl}furan-2-yl)phenyl]-5-methyl-1H-pyrazole-3-carboxamide], the IC50 is 87 nM.
`CNC(=O)[C@@H](NC(=O)c1ccc(-c2ccc(NC(=O)c3ccc(C)o3)cc2)o1)C1CCCCC1` [N-[4-(5-{[(1S)-1-cyclohexyl-2-(methylamino)-2-oxoethyl]carbamoyl}furan-2-yl)phenyl]-5-methylfuran-2-carboxamide] registered a half-maximal inhibitory concentration (IC50) of 57 nM.
Compound `CNC(=O)[C@@H](NC(=O)c1ccc(-c2ccc(NC(=O)c3cn4c(C)cccc4n3)cc2)o1)C1CCCCC1` [N-[4-(5-{[(1S)-1-cyclohexyl-2-(methylamino)-2-oxoethyl]carbamoyl}furan-2-yl)phenyl]-5-methylimidazo[1,2-a]pyridine-2-carboxamide] had an IC50 of 150 nM.
`CNC(=O)[C@@H](NC(=O)c1ccc(-c2ccc(NC(=O)c3cncc(C)c3)cc2)o1)C1CCCCC1` [N-[4-(5-{[(1S)-1-cyclohexyl-2-(methylamino)-2-oxoethyl]carbamoyl}furan-2-yl)phenyl]-5-methylpyridine-3-carboxamide] displayed a half-maximal inhibitory concentration (IC50) of 150 nM.
Take `CNC(=O)[C@@H](NC(=O)c1ccc(-c2ccc(NC(=O)c3cccc(C)n3)cc2)o1)C1CCCCC1` [N-[4-(5-{[(1S)-1-cyclohexyl-2-(methylamino)-2-oxoethyl]carbamoyl}furan-2-yl)phenyl]-6-methylpyridine-2-carboxamide]: the 50% inhibitory concentration (IC50) turned out to be 17 nM.
In the case of `CNC(=O)[C@@H](NC(=O)c1ccc(-c2ccc(NC(=O)c3cn4cccc(C)c4n3)cc2)o1)C1CCCCC1` [N-[4-(5-{[(1S)-1-cyclohexyl-2-(methylamino)-2-oxoethyl]carbamoyl}furan-2-yl)phenyl]-8-methylimidazo[1,2-a]pyridine-2-carboxamide], the IC50 is 99 nM.
In turn, `CNC(=O)[C@@H](NC(=O)c1ccc(-c2ccc(NC(=O)c3cn4ccccc4n3)cc2)o1)C1CCCCC1` [N-[4-(5-{[(1S)-1-cyclohexyl-2-(methylamino)-2-oxoethyl]carbamoyl}furan-2-yl)phenyl]imidazo[1,2-a]pyridine-2-carboxamide] yielded an IC50 of 109 nM.
Consider `Cc1cccc(C(=O)Nc2ccc(-c3ccc(C(=O)N[C@H](C(=O)NC[C@@H](C)O)C4CCCCC4)o3)cc2)n1` [N-[4-(5-{[(1S)-1-cyclohexyl-2-{[(2R)-2-hydroxypropyl]amino}-2-oxoethyl]carbamoyl}furan-2-yl)phenyl]-6-methylpyridine-2-carboxamide], for which the midpoint of inhibition, the IC50, lay at 22 nM.
